From US9409914B2, “Triazolo[4,5-d]pyrimidine derivatives” (Merck Patent GmbH, priority 2012, dated 2016)

biological target: GCN2 (Homo sapiens, UniProt Q9P2K8); test: GCN2 enzyme assay (TR-FRET Lanthascreen, phosphorylation of GFP-eIF2alpha); type: biochemical; details: 10 μM ATP, 80 nM GFP-eIF2alpha, 30 nM GCN2, room temperature
Source text: GCN2: Assay principle & conditions
This assay can quantificate the activity of the serin kinase GCN2 (general control non-derepressible-2).
This kinase is involved in the stress metabolism of cells. It is activated upon starvation (amino acid depletion). Its natural substrate is eIF2a (eukaryotic initiation factor 2 alpha subunit), a translation factor, which gets activated (phosphorylated) by GCN2 in case of an amino acid bottleneck in the cells. This in turn leads to a halt of the protein synthesis. Inhibition of GCN2 results in stopping this mechanism: The cell can not stop protein production upon “starvation” stress.
The assay is run in two steps: the enzymatic reaction and the detection step. In the first step GCN2 is incubated with 10 μM ATP and 80 nM of the GFP-labelled substrate eIF2alpha at room temperature.
The enzymatic reaction is stopped by addition of EDTA. The amount of phosphorylated eIF2alpha is determined by TR-FRET (Lanthascreen): A complex is formed consisting of antibody and GFP labelled phospho-eIF2a, which allows a FRET upon exitation at 340 nm.
The GCN2-activity is directly proportional to the ratio of fluorescence units at the emission wavelengthh 520 nm (phosphopeptide-sensitive wavelength=emission of GFP) to the units at 495 nm (reference wavelength=emission of Terbium-chelate).
Final Concentrations in the Enzymatic Reaction

Sequence of GCN2 (Q9P2K8 whole entry, species assumed): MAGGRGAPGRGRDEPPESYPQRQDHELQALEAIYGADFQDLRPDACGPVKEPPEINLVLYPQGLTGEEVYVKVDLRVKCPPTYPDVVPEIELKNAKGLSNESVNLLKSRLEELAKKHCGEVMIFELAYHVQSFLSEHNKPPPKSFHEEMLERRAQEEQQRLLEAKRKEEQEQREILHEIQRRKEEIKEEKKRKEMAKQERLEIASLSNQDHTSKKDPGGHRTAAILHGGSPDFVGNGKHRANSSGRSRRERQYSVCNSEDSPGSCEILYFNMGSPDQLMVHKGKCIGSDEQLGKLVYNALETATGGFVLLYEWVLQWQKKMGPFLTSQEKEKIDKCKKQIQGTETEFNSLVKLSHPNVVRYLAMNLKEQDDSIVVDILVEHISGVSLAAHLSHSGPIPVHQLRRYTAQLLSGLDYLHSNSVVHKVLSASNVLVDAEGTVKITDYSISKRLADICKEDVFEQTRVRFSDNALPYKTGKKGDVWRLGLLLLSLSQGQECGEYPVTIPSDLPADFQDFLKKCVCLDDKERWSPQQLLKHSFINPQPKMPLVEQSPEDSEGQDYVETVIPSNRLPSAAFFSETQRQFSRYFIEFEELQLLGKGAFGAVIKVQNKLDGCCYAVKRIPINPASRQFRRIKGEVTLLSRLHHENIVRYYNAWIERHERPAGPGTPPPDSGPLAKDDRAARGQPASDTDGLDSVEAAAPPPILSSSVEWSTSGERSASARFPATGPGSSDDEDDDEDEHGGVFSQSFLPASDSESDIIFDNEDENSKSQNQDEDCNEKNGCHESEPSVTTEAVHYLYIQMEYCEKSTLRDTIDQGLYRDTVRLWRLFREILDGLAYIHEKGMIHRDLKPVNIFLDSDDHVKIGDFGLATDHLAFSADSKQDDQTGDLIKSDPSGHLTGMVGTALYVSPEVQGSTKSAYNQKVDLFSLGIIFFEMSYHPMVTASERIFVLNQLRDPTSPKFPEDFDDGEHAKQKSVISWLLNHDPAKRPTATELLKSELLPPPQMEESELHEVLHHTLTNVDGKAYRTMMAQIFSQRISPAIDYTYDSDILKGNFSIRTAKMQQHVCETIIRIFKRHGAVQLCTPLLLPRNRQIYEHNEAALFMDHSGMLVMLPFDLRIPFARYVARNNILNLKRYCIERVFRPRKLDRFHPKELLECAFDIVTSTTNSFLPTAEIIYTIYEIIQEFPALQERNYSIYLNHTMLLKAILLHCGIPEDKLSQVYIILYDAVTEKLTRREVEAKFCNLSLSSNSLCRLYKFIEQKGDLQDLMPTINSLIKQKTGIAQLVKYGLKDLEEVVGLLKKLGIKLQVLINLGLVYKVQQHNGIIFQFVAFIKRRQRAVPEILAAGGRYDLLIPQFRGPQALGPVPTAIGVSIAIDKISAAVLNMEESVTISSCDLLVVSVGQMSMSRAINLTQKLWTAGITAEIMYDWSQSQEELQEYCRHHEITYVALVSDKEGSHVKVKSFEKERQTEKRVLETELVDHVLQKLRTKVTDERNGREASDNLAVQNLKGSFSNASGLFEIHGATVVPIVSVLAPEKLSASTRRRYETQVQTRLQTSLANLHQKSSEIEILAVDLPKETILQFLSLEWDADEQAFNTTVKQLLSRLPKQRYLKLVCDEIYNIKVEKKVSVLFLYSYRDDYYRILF

IC50 [nM] | Compound
300 to 3000 | CC(=O)Nc1ccc(-n2nnc3cnc(Nc4cnn(C[C@@H]5C[C@H]5CO)c4)nc32)cn1 (relative stereo) [Compound A59, N-(5-{5-[1-((trans)-2-hydroxymethyl-cyclopropylmethyl)-1H-pyrazol-4-ylamino]-[1,2,3]triazolo[4,5-d]pyrimidin-3-yl}-pyridin-2-yl)-acetamide]
300 to 3000 | Nc1ccc(-n2nnc3cnc(Nc4cnn(C[C@@H]5C[C@H]5CO)c4)nc32)cn1 (relative stereo) [Compound A60, ((trans)-2-{4-[3-(6-amino-pyridin-3-yl)-3H-[1,2,3]triazolo[4,5-d]pyrimidin-5-ylamino]-pyrazol-1-ylmethyl}-cyclopropyl)-methanol]
< 300 | OC[C@@H]1C[C@H]1Cn1cc(Nc2ncc3nnn(-c4ccc5nccnc5c4)c3n2)cn1 (relative stereo) [Compound A104, {(trans)-2-[4-(3-quinoxalin-6-yl-3H-[1,2,3]triazolo[4,5-d]pyrimidin-5-ylamino)-pyrazol-1-ylmethyl]-cyclopropyl}-methanol]
3000 to 50000 | COc1ccc(-n2nnc3cnc(Nc4ccn(C)n4)nc32)cc1 [Compound A2, [3-(4-methoxy-phenyl)-3H-[1,2,3]triazolo[4,5-d]pyrimidin-5-yl]-(1-methyl-1H-pyrazol-3-yl)-amine]
< 300 | CCOc1ccc(-n2nnc3cnc(Nc4cn[nH]c4)nc32)cc1 [Compound A5, [3-(4-ethoxy-phenyl)-3H-[1,2,3]triazolo[4,5-d]pyrimidin-5-yl]-(1H-pyrazol-4-yl)-amine]
< 300 | CCOc1ccc(-n2nnc3cnc(Nc4cnn(C5CCNCC5)c4)nc32)cc1 [Compound A7, [3-(4-Ethoxy-phenyl)-3H-[1,2,3]triazolo[4,5-d]pyrimidin-5-yl]-(1-piperidin-4-yl-1H-pyrazol-4-yl)-amine]
300 to 3000 | COCCCn1cc(Nc2ncc3nnn(-c4ccc(OC)cc4)c3n2)cn1 [Compound A9, [3-(4-methoxy-phenyl)-3H-[1,2,3]triazolo[4,5-d]pyrimidin-5-yl]-[1-(3-methoxy-propyl)-1H-pyrazol-4-yl]-amine]
3000 to 50000 | COc1ccc(-n2nnc3cnc(Nc4cnn(Cc5ccccc5)c4)nc32)cc1 [Compound A10, (1-benzyl-1H-pyrazol-4-yl)-[3-(4-methoxy-phenyl)-3H-[1,2,3]triazolo[4,5-d]pyrimidin-5-yl]-amine]
3000 to 50000 | COc1ccc(-n2nnc3cnc(/N=C4/N=C(C)CO4)nc32)cc1 [Compound A12, [3-(4-methoxy-phenyl)-3H-[1,2,3]triazolo[4,5-d]pyrimidin-5-yl]-[4-methyl-5H-oxazol-(2Z)-ylidene]-amine]
< 300 | COc1ccc(-n2nnc3cnc(Nc4cnn(C5CCOCC5)c4)nc32)cc1 [Compound A13, [3-(4-methoxy-phenyl)-3H-[1,2,3]triazolo[4,5-d]pyrimidin-5-yl]-[1-(tetrahydro-pyran-4-yl)-1H-pyrazol-4-yl]-amine]
< 300 | COc1ccc(-n2nnc3cnc(Nc4cnn(CCN5CCCC5)c4)nc32)cc1 [Compound A14, [3-(4-methoxy-phenyl)-3H-[1,2,3]triazolo[4,5-d]pyrimidin-5-yl]-[1-(2-pyrrolidin-1-yl-ethyl)-1H-pyrazol-4-yl]-amine]
< 300 | CCOc1ccc(-n2nnc3cnc(Nc4cnn(C5CCOCC5)c4)nc32)cc1 [Compound A15, [3-(4-ethoxy-phenyl)-3H-[1,2,3]triazolo[4,5-d]pyrimidin-5-yl]-[1-(tetrahydro-pyran-4-yl)-1H-pyrazol-4-yl]-amine]
3000 to 50000 | COc1ccc(-n2nnc3cnc(Nc4ncn[nH]4)nc32)cc1 [Compound A17, [3-(4-methoxy-phenyl)-3H-[1,2,3]triazolo[4,5-d]pyrimidin-5-yl]-(2H-[1,2,4]triazol-3-yl)-amine]
< 300 | COc1ccc(-n2nnc3cnc(Nc4cnn(C)c4)nc32)cc1 [Compound A18, [3-(4-methoxy-phenyl)-3H-[1,2,3]triazolo[4,5-d]pyrimidin-5-yl]-(1-methyl-1H-pyrazol-4-yl)-amine]
< 300 | CCOc1ccc(-n2nnc3cnc(Nc4cnn([C@H]5CC[C@@H](O)CC5)c4)nc32)cc1 [Compound A19, 4-{4-[3-(4-ethoxy-phenyl)-3H-[1,2,3]triazolo[4,5-d]pyrimidin-5-ylamino]-pyrazol-1-yl}-cyclohexanol]
< 300 | Fc1ccc(-n2nnc3cnc(Nc4cnn(C5CCOCC5)c4)nc32)cc1 [Compound A20, [3-(4-fluoro-phenyl)-3H-[1,2,3]triazolo[4,5-d]pyrimidin-5-yl]-[1-(tetrahydro-pyran-4-yl)-1H-pyrazol-4-yl]-amine]
< 300 | Cn1cc(Nc2ncc3nnn(-c4cnn(C)c4)c3n2)cn1 [Compound A21, (1-methyl-1H-pyrazol-4-yl)-[3-(1-methyl-1H-pyrazol-4-yl)-3H-[1,2,3]triazolo[4,5-d]pyrimidin-5-yl]-amine]
300 to 3000 | COc1ccc(-n2nnc3cnc(Nc4nc(-c5ccc(NC(C)=O)cc5)cs4)nc32)cc1 [Compound A42, N-[4-[2-[[3-(4-methoxyphenyl)triazolo[4,5-d]pyrimidin-5-yl]amino]thiazol-4-yl]phenyl]acetamide]
< 300 | O=C1CCCN1c1ccc(-n2nnc3cnc(Nc4cnn(C5CCOCC5)c4)nc32)cc1 [Compound A43, 1-[4-[5-[(1-tetrahydropyran-4-ylpyrazol-4-yl)amino]triazolo[4,5-d]pyrimidin-3-yl]phenyl]pyrrolidin-2-one]
< 300 | COCCCn1cc(Nc2ncc3nnn(-c4ccc(Cl)c(F)c4)c3n2)cn1 [Compound A50, [3-(4-chloro-3-fluoro-phenyl)-3H-[1,2.3]triazolo[4,5-d]pyrimidin-5-yl]-[1-(3-methoxy-propyl)-1H-pyrazol-4-yl]-amine]
< 300 | CN1CCC(n2cc(Nc3ncc4nnn(-c5cnc6ccccc6c5)c4n3)cn2)CC1 [Compound A52, [1-(1-methyl-piperidin-4-yl)-1H-pyrazol-4-yl]-(3-quinolin-3-yl-3H-[1,2,3]triazolo[4,5-d]pyrimidin-5-yl)-amine]

Compound | IC50 [nM]
CCCCOc1ccc(-n2nnc3cnc(Nc4cnn(C5CCN(C)CC5)c4)nc32)cn1 [Compound A45, [3-(6-butoxy-pyridin-3-yl)-3H-[1,2,3]triazolo[4,5-d]pyrimidin-5-yl]-[1-(1-methyl-piperidin-4-yl)-1H-pyrazol-4-yl]-amine] | 300 to 3000
CCCCOc1ccc(-n2nnc3cnc(Nc4cnn(C5CCOCC5)c4)nc32)cn1 [Compound A47, [3-(6-butoxy-pyridin-3-yl)-3H-[1,2,3]triazolo[4,5-d]pyrimidin-5-yl]-[1-(tetrahydro-pyran-4-yl)-1H-pyrazol-4-yl]-amine] | 300 to 3000
CC(C)(C)OCCn1cc(Nc2ncc3nnn(-c4ccc(Cl)c(F)c4)c3n2)cn1 [Compound A53, [1-(2-tert-butoxy-ethyl)-1H-pyrazol-4-yl]-[3-(4-chloro-3-fluoro-phenyl)-3H-[1,2,3]triazolo[4,5-d]pyrimidin-5-yl]-amine] | 300 to 3000
CCCCOc1ccc(-n2nnc3cnc(Nc4cnn(CCC5CCNCC5)c4)nc32)cn1 [Compound A55, [3-(6-butoxy-pyridin-3-yl)-3H-[1,2,3]triazolo[4,5-d]pyrimidin-5-yl]-[1-(2-piperidin-4-yl-ethyl)-1H-pyrazol-4-yl]-amine] | 300 to 3000
